Experiment [1] relates to B. thuringiensis spores. Kind of experiment: Photodynamic inactivation (PDI) of B. thuringiensis spores, colony-forming units. Format: cell-based, B. thuringiensis (ATCC 33740). The conditions noted are these: 100 μM, 1 hour, 100 mW/cm^2 appropriate wavelength light, 0 to 32 J/cm^2 (FIG. 9, FIG. 10). The method, then: (§1) The bacteria studied in the following examples were B. atrophaeus (ATCC 9372), B. cereus (ATCC14579), B. thuringiensis (ATCC 33740) and B. subtilis (ATCC 6051). Growing bacterial cells were cultivated in brain-heart infusion (BHI) broth at 37° C. Aliquots of the suspension (10^8/mL) were stored at −80° C. and then used for the experiments.
(§2) For initial experiments spores of B. atrophaeus and B. cereus were purchased from SGM Biotech, Inc (Bozeman, Mont., USA). For subsequent experiments spores of all species were prepared in the laboratory using sporulation broth for B. atrophaeus and B. subtilis, or sporulation agar (Caipo et al., 2002; Nicholson & Setlow, 1990) for B. cereus and B. thuringiensis. The sporulation medium consisted of 16.0 g nutrient broth (Difco), 2.0 g KCl, 0.5 g MgSO4; 17 g of agar. The pH of the medium was adjusted to 7, then autoclaved and cooled. After cooling 1 ml of 1M […], 1 ml of 0.1 M MnCl2.4H2O, 1 ml of 1 mM FeSO4 and 2 ml 50% glucose were added. For spore purification the mixture of spores and cells was centrifuged at 1300 g for 20 min, washed with SX volume 1 M KCl/0.5 M NaCl, rinsed with sterile deionized water, then washed with 1 M NaCl, and rinsed with sterile deionized water again. Lysozyme (50 μg/mL) was added in the presence of buffer (5× volume Tris Cl, 0.05 M, pH 7 2), and incubated with constant stirring at 4° C. overnight. Lysozyme was removed by centrifuging 8 times (at 1300 g) and washing with sterile deionized water. Spores were frozen with 10% glycerol and stored until use. To avoid germination spores were used immediately after defrosting.
(§3) As photosensitizers Rose Bengal, Toluidine Blue O (TBO), Methylene Blue, New Methylene Blue N zinc chloride double salt (NMB), 1,9-Dimethylmethylene Blue Chloride (Sigma-Aldrich—DMMB), Azure A, Azure B, Azure C, methylene violet 3RAX, safranine O, and malachite green, were used. Stock solutions were prepared in water and stored at 4° C. in the dark before use. The concentrations of stock solution were 2 mM.
(§4) When Rose Bengal was used, irradiation was performed with an argon laser at 514 nm. A diode laser with wavelength 670 nm was used for experiments with Methylene Blue and 1,9-Dimethylmethylene Blue Chloride. Diode laser with wavelength 635 nm was used for Toluidine Blue O and New Methylene Blue N. For other dyes either a turnable argon ion pumped dye laser or a 514 nm argon ion laser was used.
(§5) Suspensions of spores or bacteria (10^8/mL, 10^7/mL, 10^6/mL) were incubated with photosensitizers in the dark at room temperature. Incubation time was ranged from 1 min to 24 h and the photosensitizer concentrations varied form 10 μM to 1 mM. The cell suspensions were centrifuged at 20800 g and then washed several times with sterile PBS. The bacterial suspensions were placed on two well (concavities hanging drop) slides (Fisher Scientific) and irradiated with appropriate laser at room temperature. Fluences ranged from 0 to 300 J/cm^2. Fluence rates varied from 0 to 500 mW/cm^2. During irradiation aliquots of 20 μL were taken to determine the colony-forming units. The contents of the wells were mixed before sampling. The aliquots were serially diluted 10-fold in PBS to give dilutions of 10^−1-10^−6 times the original concentrations and were streaked horizontally on square BHI agar plates as described by (Jett et al., 1997). Plates were incubated at 37° C. overnight.
(§6) Two types of control conditions were used: irradiation in the absence of photosensitizers and incubation with photosensitizers in the dark.

Experiment [2] relates to B. cereus spores. Kind of experiment: Photodynamic inactivation (PDI) of B. cereus spores, colony-forming units. The format is cell-based, B. cereus (ATCC14579). The conditions noted are these: for photodynamic killing of spores: 100 mW/cm^2 appropriate wavelength light, 0 to 32 J/cm^2 (FIG. 5, FIG. 8). The method, then:
as §1, §2, §3, §4, §5, §6

The subject of experiment [3] is B. cereus vegetative cells. The experiment can be described thus: Photoinactivation of B. cereus vegetative cells. The note with it: 10(7)/mL, 3 hours at 37° C., 100 mW/cm^2 635-nm light (FIG. 13). The format is cell-based, B. cereus (ATCC14579). The method, then:
as §1
as §5, with “overnight. […]” for “overnight.”

The test system of experiment [4] is B. subtilis spores. Kind of experiment: Photodynamic inactivation (PDI) of B. subtilis spores, colony-forming units. The format is cell-based, B. subtilis (ATCC 6051). The note with it: needs ten times the dye and six times the light of B. cereus and B. thuringiensis; 100 mW/cm^2 635-nm light (FIG. 3). The method, then: as §1
as §2, with “Lysozyme was removed by centrifuging 8 times (at 1300 g) and washing with sterile deionized water. Spores were frozen with 10% glycerol and stored until use. To avoid germination spores were used immediately after defrosting.” left out

Experiment [5] concerns B. subtilis vegetative cells. Kind of experiment: Photoinactivation of B. subtilis vegetative cells. Format: cell-based, B. subtilis (ATCC 6051). The note with it: 10(7)/mL, 3 hours at 37° C., 100 mW/cm^2 635-nm light (FIG. 13). The method, then: as §1
as §5, with “overnight. […]” for “overnight.”

Where only a bound is given, the exact number is not on record here.

Take `CN(C)c1ccc2nc3ccc(N)cc3[s+]c2c1.[Cl-]` [Azure A]: the “photodynamic killing of spores” value is on record as “effective” in experiment [1] and “effective” in experiment [2] (100 μM, 1 hour).
Turning to `CNc1ccc2nc3ccc(=[N+](C)C)cc-3sc2c1.[Cl-]` [Azure B], the “photodynamic killing of spores” value in experiment [1] was “effective”; in experiment [2] (100 μM, 1 hour) it was “effective”.
Consider `CNc1ccc2nc3ccc(N)cc3[s+]c2c1.[Cl-]` [Azure C], for which the “photodynamic killing of spores” value in experiment [1] is reported as “effective”; in experiment [2] (100 μM, 1 hour) it was “effective”. In addition, in experiment [2] (100 μM, 1 hour, 100 mW/cm^2 (FIG. 5)), the “rank of potency among the dyes of FIG. 5” value is “most potent”.
Turning to `Cc1cc(N(C)C)cc2[s+]c3cc(N(C)C)cc(C)c3nc12.[Cl-]` [DMMB, 1,9-Dimethylmethylene Blue Chloride], the “photodynamic killing of spores” value in experiment [1] is “effective”. Besides, the “effect of incubation time on effectiveness of killing” value in experiment [2] (50 μM DMMB, 1 minute to 24 hours incubation, 670 nm light (FIG. 7)) is reported as “effectiveness of killing increases with increasing incubation time”. In addition, in experiment [2] (DMMB, 670 nm light (FIG. 7)), the “killing of spores in PDI” value is listed as “effective”.
Take `Cc1cc2nc3ccc(N(C)C)cc3[s+]c2cc1N.[Cl-]` [TBO, Toluidine Blue O]: the “sensitivity of vegetative cells to PDI” value in experiment [3] and in experiment [5] was “sensitive to PDI” throughout. For the same molecule, the killing of spores entry in experiment [4] is “more than 99.9%”. Moreover, in experiment [1], the “photodynamic killing of spores” value is given as “effective”. Moreover, the “killing of spores as a function of concentration and light fluence” value in experiment [2] (10 μM, 100 μM or 1 mM, 10 minutes, 100 mW/cm^2 635-nm light (FIG. 2)) was “improved, depending on both TBO concentration and light fluence”. Moreover, the “most effective incubation period” value in experiment [2] (50 μM TBO (FIG. 6)) is no less than 3 h. For the same molecule, in experiment [2] (50 μM TBO, 1 minute to 24 hours incubation (FIG. 6)), the “effect of incubation time on effectiveness of killing” value is “effectiveness of killing increases with increasing incubation time”. In addition, in experiment [2] (100 μM, 10 minutes incubation, 100 mW/cm^2 635-nm light (FIG. 1)), the spores killed result is reported as “greater than 99.9%”. In experiment [2] (1 mM dose, 10 minutes, 100 mW/cm^2 635-nm light (FIG. 2)), the “killing of spores at the first lowest light dose tested” value is recorded as “complete killing”. Also, in experiment [2] (1 mM dose, 10 minutes, no light (FIG. 2)), the “dark toxicity to spores” value is “significant dark toxicity”.
As for `CN(C)c1ccc(C(=C2C=CC(=[N+](C)C)C=C2)c2ccccc2)cc1` [malachite green], the “photodynamic killing of spores” value in experiment [2] (100 μM, 1 hour) is on record as “effective”.
Same read-out and setting: as for `CN(C)c1ccc2nc3ccc(=[N+](C)C)cc-3sc2c1` [methylene blue, Methylene Blue], the entry is “effective”; as for `CCN(CC)c1ccc2nc3ccc(N)cc3[n+](-c3ccccc3)c2c1.[Cl-]` [methylene violet 3RAX], “effective”.
`Cc1cc2nc3cc(C)c(N)cc3[n+](-c3ccccc3)c2cc1N.[Cl-]` [safranin O, safranine O]: the “photodynamic killing of spores” value in experiment [2] (100 μM, 1 hour) is “effective”.
With “New Methylene Blue N zinc chloride double salt [NMB]”, the “photodynamic killing of spores” value in experiment [1] is “effective”; in experiment [2] (100 μM, 1 hour) it was “effective”.
